The source of these data is patent US20110201564A1, “SUBSTITUTED 7-SULFANYLMETHYL, 7-SULFINYLMETHYL AND 7-SULFONYLMETHYL INDOLES AND USE THEREOF” (BAYER SCHERING PHARMA AKTIENGESELLSCHAFT, priority 2008, published 2011).

Where two headings read alike, the source gives them in different places.

The target of assay [1] is T1, progesterone receptor (PR) (Homo sapiens, UniProt P06401).
T1 construct: of the progesterone receptor (PR, amino acids 680-933); expressed in transfected cells; host or cells: CHO K1
T1 sequence (P06401 680-933): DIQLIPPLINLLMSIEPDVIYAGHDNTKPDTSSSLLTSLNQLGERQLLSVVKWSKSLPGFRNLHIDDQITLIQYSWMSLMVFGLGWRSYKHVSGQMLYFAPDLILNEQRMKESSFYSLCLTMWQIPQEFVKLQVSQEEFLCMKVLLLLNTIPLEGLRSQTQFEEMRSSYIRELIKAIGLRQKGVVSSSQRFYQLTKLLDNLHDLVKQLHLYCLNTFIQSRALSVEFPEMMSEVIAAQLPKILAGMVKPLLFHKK
In words: Cellular in vitro assay, GAL4-PR chimera luciferase reporter in CHO K1 cells (selectivity). The format is cell-based. The conditions noted are these: antagonism vs progesterone; CHO K1 GAL4-PR LBD luciferase reporter. Summed up:
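CHO K1 cells stably expressing GAL4 DNA-binding domain fused to human MR, PR or AR ligand-binding domains plus GAL4-driven firefly luciferase; compounds added 10–30 min before agonist (aldosterone, progesterone or dihydrotestosterone), luciferase read after 5–6 h; IC50 from sigmoidal concentration–response curves.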

For another assay, the target named is T2, CYP3A4 (Homo sapiens, UniProt P08684).
T2 construct: using human liver microsomes (pool from various individuals); from tissue; host or cells: human liver microsomes (pool from various individuals)
T2 sequence (P08684 whole entry): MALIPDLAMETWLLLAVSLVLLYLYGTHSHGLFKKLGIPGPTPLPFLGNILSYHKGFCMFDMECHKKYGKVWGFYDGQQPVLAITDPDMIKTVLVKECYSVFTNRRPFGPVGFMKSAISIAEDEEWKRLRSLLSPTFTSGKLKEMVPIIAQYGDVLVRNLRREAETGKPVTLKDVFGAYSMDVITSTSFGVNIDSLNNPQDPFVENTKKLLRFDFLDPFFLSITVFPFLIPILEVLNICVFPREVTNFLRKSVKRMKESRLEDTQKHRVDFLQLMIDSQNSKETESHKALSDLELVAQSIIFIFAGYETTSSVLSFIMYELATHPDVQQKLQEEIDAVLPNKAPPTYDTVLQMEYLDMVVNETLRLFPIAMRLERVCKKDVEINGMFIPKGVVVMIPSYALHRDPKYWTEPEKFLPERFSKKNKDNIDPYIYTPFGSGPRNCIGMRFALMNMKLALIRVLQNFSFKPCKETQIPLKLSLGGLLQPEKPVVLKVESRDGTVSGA
Briefly: CYP inhibition assay with human liver microsomes. The format is in vitro ADME. The text has this: Inhibitory properties of an active ingredient on the cytochromes P450 (CYP) of the human body may entail extensive clinical effects (drug interactions) because most of the prescribed medicaments are degraded (metabolized) by these enzymes. The ones involved in this are in particular the CYP isoenzymes of the 1A and 2C families, CYP2D6 and, with a proportion of almost 50%, CYP3A4. In order to preclude or minimize these possible drug interactions (Drug-Drug Interactions, DDI), the ability of substances to be able to inhibit CYP1A2, CYP2C8, CYP2C9, CYP2D6 and CYP3A4 in humans is investigated using human liver microsomes (pool from various individuals). This takes place by measuring CYP isoform-specific metabolites formed from standard substrates such as, for example, phenacetin, amodiaquin, diclofenac, dextromethorphan, midazolam and testosterone. The inhibitory effects are investigated at six different concentrations of the test compounds (1.5, 3.1, 6.3, 12.5, 25 and 50 μM as maximum concentration or 0.6, 1.3, 2.5, 5, 10 and 20 μM as maximum concentration), comparing with the extent of the CYP isoform-specific metabolite formation of the standard substrates in the absence of the test compounds, and calculating the corresponding IC50 values. CYP isoform-specific standard inhibitors such as, for example, fluvoxamine, quercetin, sulfaphenazole, fluoxetine and ketoconazole serve as control of the results obtained. In order to obtain indications of the possible mechanism-based inhibitors (MBI) on CYP3A4, the human liver microsomes are incubated in the presence of the inhibitor to be investigated for 30 minutes before the addition of midazolam or testosterone as standard substrates of CYP3A4. A reduction in the IC50 obtained by comparison with the mixture without preincubation serves as an indicator of a mechanism-based inhibition. Mibefradil serves as positive control.
The incubations of the standard substrates with human liver microsomes (23-233 μg/mL) in the presence of the test compound (as potential inhibitor) are carried out in 96-well plates in a workstation (Tecan, Genesis, Crailsheim, Germany) at 37° C. The incubation times are 15-20 minutes. The test compounds are preferably dissolved in acetonitrile (1.0 or 2.5 mM stock solution). The 96-well plates are produced by sequential addition of a stock solution of NADP+, EDTA, glucose 6-phosphate and glucose-6-phosphate dehydrogenase in phosphate buffer (pH 7.4), the test compound, and a solution of standard substrate and human liver microsomes in phosphate buffer (pH 7.4). The total volume is 200 μl. The corresponding control incubations with and without standard inhibitor also take place on the 96-well plate. The incubations are stopped after the respective incubation time by adding 100 μl of acetonitrile in which there is a suitable internal standard. Precipitated proteins are removed by centrifugation (3000 rpm, 10 minutes, 10° C.). The resulting supernatants of the respective plates are combined on one plate and analyzed by LC-MS/MS. The […] values are generated from the resulting measured data and used to assess the inhibitory potential of the test compound.
Background: Liver microsomes are a subcellular fraction often used to study metabolism.

[2] abbreviates: 30 min preincubation with test compound before substrate, read-out: CYP 3A4 Preincubation, 30 min.
Where [3] appears, read: without preincubation, read-out: CYP 3A4 Coincubation.

Regarding `CCC(CCC#N)(c1ccc(Cl)cc1)c1c[nH]c2c(CS(C)(=O)=O)cccc12` (stereo not drawn) [Example 172, 4-(4-Chlorophenyl)-4-{7-[(methylsulfonyl)methyl]-1H-indol-3-yl}hexanonitrile], the IC50 in assay [1] is 16 µM; at CYP3A4 (setting [2]), 9.6 µM; on CYP3A4 (setting [3]), greater than 20 µM.
With `CS(=O)(=O)Cc1cccc2c(C(c3ccc(Cl)cc3)C3CC3(F)F)c[nH]c12` (single isomer, unassigned) [Example 261-1, 3-[(4-Chlorophenyl)(2,2-difluorocyclopropyl)methyl]-7-[(methylsulfonyl)methyl]-1H-indole], the IC50 in assay [1] is 12.3 µM; on CYP3A4 (setting [2]), 19 µM; at CYP3A4 (setting [3]), greater than 20 µM.
Take `CS(=O)(=O)Cc1cc(F)cc2c(C(c3ccc(C(F)(F)F)cc3F)C3CC3C#N)c[nH]c12` (single isomer, unassigned) [Example 271-1-1, 2-({5-Fluoro-7-[(methylsulfonyl)methyl]-1H-indol-3-yl}[2-fluoro-4-(trifluoro-methyl)phenyl]methyl)cyclopropanecarbonitrile]: the IC50 in assay [1] is 10 µM; at CYP3A4 (setting [2]), 25.6 µM; at CYP3A4 (setting [3]) it was greater than 40 µM.
Turning to `CS(=O)(=O)Cc1cccc2c(C(c3ccc(F)cc3)c3ccc(C(F)(F)F)cc3)c[nH]c12` (stereo not drawn) [Example 113, 3-{(4-Fluorophenyl) [4-(trifluoromethyl)phenyl]methyl}-7-[(methylsulfonyl)methyl]-1H-indole], the IC50 was 7.24 µM in assay [1], greater than 20 µM on CYP3A4 (setting [2]) and greater than 20 µM on CYP3A4 (setting [3]).
Consider `CS(=O)(=O)Cc1cccc2c(C(CCC#N)c3ccc4sccc4c3)c[nH]c12` (stereo not drawn) [Example 73, 4-(1-Benzothiophen-5-yl)-4-{7-[(methylsulfonyl)methyl]-1H-indol-3-yl}butanonitrile], for which the IC50 in assay [1] is 6.44 µM; at CYP3A4 (setting [2]), 16.6 µM; on CYP3A4 (setting [3]) it was greater than 20 µM.
`CCC(CCO)(c1ccc(Cl)cc1)c1c[nH]c2c(CS(C)(=O)=O)cccc12` (stereo not drawn) [Example 147, 3-(4-Chlorophenyl)-3-{7-[(methylsulfonyl)methyl]-1H-indol-3-yl}pentan-1-ol]: the IC50 in assay [1] was 1.42 µM; on CYP3A4 (setting [2]), 8.8 µM; at CYP3A4 (setting [3]), greater than 20 µM.
For the compound `CS(=O)(=O)Cc1cccc2c(C(CCC#N)c3ccc4c(c3)OC(F)(F)O4)c[nH]c12` (stereo not drawn) [Example 169, 4-(2,2-Difluoro-1,3-benzodioxol-5-yl)-4-{7-[(methylsulfonyl)methyl]-1H-indol-3-yl}butanonitrile], the IC50 is 6.57 µM in assay [1], 17 µM on CYP3A4 (setting [2]) and greater than 20 µM at CYP3A4 (setting [3]).
As for `CS(=O)(=O)Cc1cc(F)cc2c(C(c3ccc(Cl)cc3F)C3CC3C#N)c[nH]c12` (single isomer, unassigned) [Example 273-1-2, 2-[(4-Chloro-2-fluorophenyl){5-fluoro-7-[(methylsulfonyl)methyl]-1H-indol-3-yl}methyl]cyclopropanecarbonitrile], the IC50 in assay [1] was 10 µM; on CYP3A4 (setting [2]) it was 13.7 µM; at CYP3A4 (setting [3]), greater than 20 µM.
Turning to `CS(=O)(=O)Cc1cccc2c(C3(C4CC4)CCc4cc(F)ccc43)c[nH]c12` (stereo not drawn) [Example 107, 3-(1-Cyclopropyl-5-fluoro-2,3-dihydro-1H-inden-1-yl)-7-[(methylsulfonyl)methyl]-1H-indole], the values for the IC50 (in assay [1]; on CYP3A4 (setting [2]); on CYP3A4 (setting [3])) were 4.83 µM, 12.9 µM and greater than 20 µM, respectively.
`CS(=O)(=O)Cc1cccc2c(C(CCC#N)c3ccc(Cl)cc3F)c[nH]c12` (single isomer, unassigned) [Example 59-1, 4-(4-Chloro-2-fluorophenyl)-4-{7-[(methylsulfonyl)methyl]-1H-indol-3-yl}butanonitrile]: the IC50 is 10 µM in assay [1], 13.1 µM at CYP3A4 (setting [2]) and greater than 20 µM on CYP3A4 (setting [3]).
